# Structures can show the parent of a compound that is named as a salt.
# Legend:
# [1] = system: HepG2 cells; assay: Image based high content analysis (HCA), fixed and live assays, in HepG2
# Experimental: Briefly, the cells were grown in DMEM supplemented with 10% heat inactivated FBS, 1% penicillin-streptomycin (PEST), 1% sodium pyruvate, and 1% nonessential amino acids. Cells were passaged at 1 : 8 or 1 : 6 every 3-4 days when they reach 75–80% confluence. Seeding density was optimized for HCA application to ensure that the cells were in a monolayer (5000 cells per well in 96-well plates) for precise imaging. The cells were grown for 48 h to attach and stabilize. The experiments performed with HepG2 cells were designed to ensure that each assay was performed with cells in a similar growth phase.
# Each concentration was assayed in triplicate wells. […] The experimental process is illustrated in Figure 2.
# And finally, TOTO-3 was used for assessing PMP.
# The cells were imaged using an Olympus ScanR system.
# All other fluorescence signals were considered as subobjects.
# [2] = system: hiPSC derived hepatocytes (hiPS-HEP); assay: Image based high content analysis (HCA), fixed and live assays, in hiPSC derived hepatocytes;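 further: hiPS-HEP obtained from ChiPSC4 through definitive endoderm under serum- and feeder-free conditions in 96-well plates, fluorescence imaging, each concentration run in triplicate wells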
# From the text: (§1) For hepatic differentiation, a serum- and feeder-free procedure recapitulating liver development was applied. First, ChiPSC4 was guided to differentiate into definitive endoderm using the Cellartis DE Diff Kit (Takara Bio Europe AB; Y30030), containing complete media and coating solution for differentiation of hPSC to DE cells in 2D culture. On day 7 of differentiation, the DE cells were enzymatically dissociated and reseeded into fibronectin coated 96-well plates. […] Wells of 96-well plates were coated by adding fibronectin solution 0.15 mL per cm^2 to the wells and let to incubate for >60 min at RT. […] Next, the cell suspension was centrifuged for 5 min at 300 g at RT, the supernatant was removed, and the cell pellet was resuspended in warm Hepatocyte Thawing and Seeding medium (Cellartis Hepatocyte Diff Kit; Takara Bio Europe AB; Y30050). Prior to seeding of cells, excess coating was removed and 150 K DE cells/cm^2 were seeded in the 96-well plates. On days 9 and 11 (counted from the start of ChiPSC4 differentiation), medium was changed using Hepatocyte Progenitor Medium (Cellartis Hepatocyte Diff Kit).
# (§2) The cells were treated for 48 h with compounds at varying concentrations (half log dilution from the top concentration). […] The stock solutions were prepared in DMSO or water and were diluted in culture medium to obtain the final concentration. Each concentration was assayed in triplicate wells. Vehicle control wells were included and the final DMSO concentration in the medium never exceeded 0.5% (v/v). Each batch had two plates each for fixed and live assays.
# (§3) LipidTOX Green neutral lipids and LipidTox Red phospholipidosis were used for identifying neutral lipid and phospholipid formation within the cells. MMP changes (Δψm) within the cell were measured using MitoTracker orange. Carboxy-H2DCFDA (6-carboxy-2′,7′-dichlorodihydrofluorescein diacetate) an acetylated fluorescent was used for measuring ROS. And finally, TOTO-3 was used for assessing PMP.
# (§4) The fluorescence probes were grouped into two sets according to their optical compatibility and requirement of fixed or live material. […] The fluorescent probes for neutral lipids and phospholipids required the cells to be fixed and were assigned to the fixed assay. The probes MitoTracker orange, carboxy-H2DCFDA, and TOTO-3 were assigned to the live assay.
# (§5) Following compound incubation, probes were administered to the cultures of the live assay. […] After incubation for 45 min at optimal cell culture conditions, the cells were changed to phenol red (PR) free medium for live cell imaging. For fixed assay, LipidTox Red probe was added with the compounds, and after 48 h the cells were fixed in 4% PFA supplemented with 1X Hoechst stain for 30 min at room temperature. Subsequently, cells were washed with PBS^+/+ and 1X LipidTOX Green stain diluted in PBS^+/+ was incubated with the cells for 30 min at room temperature. The plates were imaged without removing the buffer with probe.
# (§6) The cells were imaged using an Olympus ScanR system. Prior to image acquisition, the heating system and CO2 gas flow were started to ensure optimal conditions in the ScanR chamber for live cell analysis. The incubator was set to 37°C with 5% CO2 and relative humidity of 90%. […] 20X long distance objective with NA 0.45 was used to image distinct fluorescence channels. In order to cover the entire well and also to capture maximum cell events sixteen fields per well (4 × 4 tile grid spread equally) were imaged. The channel exposure time for LipidTOX Green, LipidTOX Red, MitoTracker orange, and carboxy-H2DCFHDA were set based on the fluorescence of the negative control wells and were set constant within each plate. Exposure time for Hoechst and TOTO-3 was set in the range of 1–10 ms depending on cellular fluorescence intensity.
# (§7) The acquired images were analyzed using ScanR analysis program from Olympus.
# [3] = system: hiPSC derived hepatocytes (hiPS-HEP);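 further: hiPS-HEP obtained from ChiPSC4 through definitive endoderm under serum- and feeder-free conditions in 96-well plates, fluorescence imaging, each concentration run in triplicate wells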
# From the text: as §1, §2, §3, §4, §5, §6, §7
# [4] = plasma; no reference given; read-out: C max (maximum plasma concentration of the drug); cited from earlier work
# [5] = HepG2, fixed, at 100 µM (Amiodarone HCL at […])
# [6] = hiPSC derived hepatocytes, at concentrations higher than 100 μM, similar to control up to 100 μM
compound,measurement,setting,value
"O=C([O-])CC(O)(CC(=O)[O-])C(=O)[O-].[Na+].[Na+].[Na+] [Sodium citrate, sodium citrate]","Degree of injury score, Phospholipids Area",[1]; [5],0 (variation lower than 25%)
same,"Degree of injury score, Phospholipids C",[1]; [5],1 (variation 25-150%)
same,"Degree of injury score, Phospholipids MI",[1]; [5],0 (variation lower than 25%)
same,Score for phospholipidosis,"[1]; HepG2 cultures, at 100 μM",false positive score
same,Effects on all parameters measured over the whole dose range,"[2]; hiPSC derived hepatocytes, negative control substance",No significant effects
"CN(C)[C@@H]1C(O)=C(C(N)=O)C(=O)[C@@]2(O)C(O)=C3C(=O)c4c(O)cccc4[C@@](C)(O)[C@H]3C[C@@H]12 [Tetracycline, tetracycline hydrochloride]",Significant changes on MMP,[1]; HepG2,not detected
same,IC50/EC50 Nucleus Area,"[1]; HepG2, fixed assay, 48 h",464 µM
same,IC50/EC50 Nucleus Cell count,"[1]; HepG2, fixed assay, 48 h",558 µM
same,IC50/EC50 Nucleus MI,"[1]; HepG2, fixed assay, 48 h",348 µM
same,IC50/EC50 Steatosis Area,"[1]; HepG2, fixed assay, 48 h",287 µM
same,IC50/EC50 Steatosis Count,"[1]; HepG2, fixed assay, 48 h",36.3 µM
same,IC50/EC50 Steatosis MI,"[1]; HepG2, fixed assay, 48 h",361 µM
same,IC50/EC50 MMP MI,"[1]; HepG2, live assay, 48 h",265 µM
same,IC50/EC50 Nucleus Area,"[1]; HepG2, live assay, 48 h",336 µM
same,IC50/EC50 Nucleus Cell count,"[1]; HepG2, live assay, 48 h",836 µM
same,IC50/EC50 Nucleus MI,"[1]; HepG2, live assay, 48 h",959 µM
same,IC50/EC50 ROS MI,"[1]; HepG2, live assay, 48 h",1149 µM
same,"MEC, PMP mean intensity","[1]; human, 48 h",1000 µM
same,"MEC, ROS mean intensity","[1]; human, 48 h",1000 µM
same,"MEC, nuclear changes area (NC, A)","[1]; human, 48 h",316 µM
same,"MEC, phospholipidosis mean intensity (PL, MI)","[1]; human, 48 h",100 µM
same,"MEC, steatosis droplet count (S, C)","[1]; human, 48 h",100 µM
same,"MEC, steatosis mean intensity (S, MI)","[1]; human, 48 h",100 µM
same,"Minimal effective concentration (MEC), viability cell count (V, CC)","[1]; human, 48 h",316 µM
same,Cytotoxic effects,[3],minimal cytotoxic effects
same,Phospholipid parameters / accumulation of phospholipids,[3],not detected
same,Significant changes in PMP,[3],did not generate any significant changes
same,Significant changes on MMP,[3],not detected
same,Concentration at which increase in lipid accumulation / lipid droplets was observed,"[3]; human, 48 h",32 µM
same,Concentration at which mitochondrial membrane potential (MMP) increased,"[3]; human, 48 h",32 µM
same,Concentration at which nuclear changes were evident (nuclear intensity and area),"[3]; human, 48 h",320 µM
same,Concentration at which oxidative stress increased,"[3]; human, 48 h",100 µM
same,"MEC, ROS mean intensity","[3]; human, 48 h",316 µM
same,"MEC, nuclear changes area (NC, A)","[3]; human, 48 h",316 µM
same,"MEC, steatosis droplet count (S, C)","[3]; human, 48 h",316 µM
same,"MEC, steatosis mean intensity (S, MI)","[3]; human, 48 h",1000 µM
same,"MEC, viability cell count (V, CC)","[3]; human, 48 h",1000 µM
same,"Minimal effective concentration (MEC), viability cell count (V, CC)","[3]; human, 48 h",1000 µM
same,Cmax,[4],14.2 µM
same,IC50/EC50 Nucleus Area,"[2]; hiPS-HEP, fixed assay, 48 h",105 µM
same,IC50/EC50 Nucleus Cell count,"[2]; hiPS-HEP, fixed assay, 48 h",432 µM
same,IC50/EC50 Nucleus MI,"[2]; hiPS-HEP, fixed assay, 48 h",211 µM
same,IC50/EC50 Steatosis Area,"[2]; hiPS-HEP, fixed assay, 48 h",213 µM
same,IC50/EC50 Steatosis Count,"[2]; hiPS-HEP, fixed assay, 48 h",184 µM
same,IC50/EC50 Steatosis MI,"[2]; hiPS-HEP, fixed assay, 48 h",418 µM
same,IC50/EC50 Nucleus Area,"[2]; hiPS-HEP, live assay, 48 h",211 µM
same,IC50/EC50 Nucleus Cell count,"[2]; hiPS-HEP, live assay, 48 h",243 µM
same,IC50/EC50 Nucleus MI,"[2]; hiPS-HEP, live assay, 48 h",380 µM
same,IC50/EC50 ROS MI,"[2]; hiPS-HEP, live assay, 48 h",160 µM
same,Increase of mean nuclear intensity,[2]; [6],12%
same,Increase of nuclear area,[2]; [6],14%
same,Increase of PMP compared to the control,"[2]; hiPSC derived hepatocytes, at the highest concentration",8%
